Results taken from article PMC5447756, “Identification of Epigallocatechin-3- Gallate as an Inhibitor of Phosphoglycerate Mutase 1” (Frontiers in Pharmacology, 2017).

Columns and labels:
[1] = test system: T1, PGAM1 R116K mutant; assay: Inhibition of PGAM1 R116K mutant; assay type: biochemical, human; settings: compared to the wild-type PGAM1
T1 construct: His; made in house; host or cells: E. coli BL21
Procedure: (§1) BL21 competent cells were transformed by His-tagged pETDuet-1-PGAM1 (wildtype or mutants) or His-tagged pETDuet-1-PHGDH constructs. Cells were collected, resuspended in buffer A (20 mM Tris, 200 mM NaCl, 20 mM imidazole, pH 8.0) and sonicated on ice until complete lysis. His-tagged PGAM1, PGAM1 mutants or PHGDH recombinant proteins in supernatant were purified using Ni-NTA beads (QIAGEN), washed with buffer A, and eluted with buffer B (20 mM Tris, 200 mM NaCl, 250 mM imidazole, pH 8.0). All obtained proteins were stored at -80°C.
(§2) Recombinant PGAM1 enzymatic activity was measured by a multiple enzymes coupled assay. In brief, assay was conducted in 10 μL buffer (50 mM HEPES, PH 7.5, 10 mM MgCl2) containing 5 μL 1 mg/ml recombinant PGAM1 enzyme, 2.5 μL test compound, 2.5 μL 1 mM ADP, 1 mM 3-PG, 0.5 units/ml enolase (Sigma–Aldrich) and 0.5 units/mL recombinant pyruvate kinase M1 (Sigma–Aldrich). The production of ATP was measured by Kinase-Glo® Max Luminescent Kinase Assay (Promega).
(§3) H186R was a well-validated catalytically dead mutant of PGAM1 ([Zhang et al., 2016]; [Qu et al., 2017]), which was used as a control (Figure 2B).

[2] = test system: T2, PGAM1 R10K mutant; assay: Inhibition of PGAM1 R10K mutant; assay type: biochemical, human; settings: compared to the wild-type PGAM1
T2 construct: His; made in house; host or cells: E. coli BL21
Procedure: as §1, §2, §3

[3] = test system: T3, PGAM1 R191K mutant; assay: Inhibition of PGAM1 R191K mutant; assay type: biochemical, human; settings: compared to the wild-type PGAM1
T3 construct: His; made in house; host or cells: E. coli BL21
Procedure: as §1, §2, §3

[4] = test system: human xenograft tumors; set-up: method as in Hitosugi et al., 2012; settings: mice models carrying human xenograft tumors; ref Hitosugi et al., 2012; cited from earlier work
[5] = test system: NCI-H1299 cells; assay: Intracellular 2-PG measurement; assay type: cell-based, human; settings: NCI-H1299, 24 h, free compound
Procedure: A 2-Phosphoglycerate Colorimetric/Fluorometric Assay kit (BioVision) was used to measure cellular 2-PG level. Cells were collected after exposure to compounds for 24 h, washed with PBS, and lysed with ice-cold 2-PG assay buffer. […] The samples were measured by using EnVision® at Ex 535 Em 587 nm.

[6] = biological target: T4, PGAM1 (Homo sapiens, UniProt P18669); assay: Substrate 3-PG competition, Lineweaver-Burk plot analysis; assay type: biochemical
T4 construct: His; made in house; host or cells: E. coli BL21

[7] = test system: hexokinase 2 (HK2); set-up: method as in Gao et al., 2015; settings: human tongue carcinoma; ref Gao et al., 2015; cited from earlier work
[8] = biological target: T4, PGAM1; assay: Surface plasmon resonance binding to PGAM1; settings: SPR, 25°C, 1:1 Langmuir binding model; read-out: dissociation constant (Kd-value)
Procedure: Surface plasmon resonance (SPR) assay was carried out with a ProteOn XPR36 instrument (Bio-Rad). PGAM1 was coupled to the surface of a GLH sensor chip according to the manufacturer’s instructions. […] Resonance units (RU) changes represent the binding condition. The dissociation constant (Kd) was calculated using the ProteOn Manager 3.1 software program by fitting to a 1:1 Langmuir binding model.

[9] = test system: T5, mutant isocitrate dehydrogenase 1 (IDH1 R132H); assay: IDH enzymatic assay; assay type: biochemical; settings: at a concentration up to 100 μM
T5 construct: purchased Cayman Chemical
Procedure: Assays were conducted in 10 μL buffer [150 mM NaCl, 20 mM Tris pH7.5, 10 mM MgCl2, 0.05% (w/v) bovine serum albumin] containing 2.5 μL of test compound, 5 μL enzyme solution (10 ng/μL mutant IDH, Cayman Chemical) and 2.5 μL substrate solution (1 mM α-KG, 4 μM NADPH) added into a 384-well plate followed by incubation at room temperature for 60 min. After incubation, NADPH remaining amount was measured by adding 5 μL buffer containing 5 μM resazurin and 0.01 unit diaphorase and incubated at room temperature for 10 min. The plate was read using EnVision (Perkin Elmer) at Ex 540 Em 590 nm.

[10] = test system: NCI-H1299 cells; assay: Cell proliferation assay, NCI-H1299; assay type: cell-based, human
Procedure: Cells were seeded into a 6-well plate. […] The cells were harvested after incubation for 72 h and the proliferation inhibition rate was calculated by cell number counting (Beckman).

[11] = test system: T6, phosphoglycerate dehydrogenase (PHGDH); assay: PHGDH enzymatic assay; assay type: biochemical; settings: at a concentration up to 100 μM
T6 construct: His; made in house; host or cells: E. coli BL21
Procedure: Assays were conducted in 10 μL buffer (200 mM Tris-HCl pH8.1, 400 mM KCl, 2 mM GSH, and 10 mM EDTA) containing recombinant PHGDH, 0.6 mM NAD, 1 mM 3-PG. The NADH product can be measured by diaphorase/rezasurin system.

[12] = biological target: T4, PGAM1; assay: PGAM1 coupled enzymatic assay (PKM1/enolase, Kinase-Glo); assay type: biochemical; settings: recombinant PGAM1, coupled enzyme assay; read-out: IC50, inhibition of PGAM1
Text: To identify new PGAM1 inhibitors, we utilized a coupled PGAM1 and pyruvate kinase isozymes M1 (PKM1)/enolase biochemical assay followed by a counter screen to exclude compounds with activity toward PKM1 or enolase. […] Using these biochemical assays, we screened a chemical library composed of 800 purified compounds derived from natural products.

[13] = test system: Caco-2 monolayer; assay: Caco-2 monolayer permeability; assay type: in vitro ADME; settings: result in words
Procedure: The solubility of compounds was measured by Nephelometry using the NEPHELOstar plus apparatus (BMG Lab Technologies). Caco-2 monolayer was cultivated on permeable support. In details, after 21-day culture, the integrity of the cell monolayer of every well was verified by measuring the transepithelial electrical resistance (TEER). The diluted solution was added to corresponding well and the plate was incubated at 37°C for 1.5 h. 100 μL samples were collected from both apical and basolateral sides at the initial and end time points and the sample concentrations were measured for the evaluation of mass balance.

T4 sequence (P18669 whole entry): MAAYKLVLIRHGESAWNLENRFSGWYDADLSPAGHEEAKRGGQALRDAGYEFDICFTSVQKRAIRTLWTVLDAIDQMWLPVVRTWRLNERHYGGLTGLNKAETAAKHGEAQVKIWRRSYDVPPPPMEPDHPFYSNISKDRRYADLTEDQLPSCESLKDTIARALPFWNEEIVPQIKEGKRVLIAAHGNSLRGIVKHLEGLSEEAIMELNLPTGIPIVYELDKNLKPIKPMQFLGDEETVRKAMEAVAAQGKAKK

Compound | inhibitory activity toward R116K mutant [1] | inhibitory activity toward R10K mutant [2] | inhibitory activity toward R191K mutant [3] | anticancer properties in xenograft mice [4] | concentration giving apparent inhibition of intracellular 2-PG level [5] [µM] | pattern of inhibition with substrate 3-PG [6] | expression of hexokinase 2 (HK2) [7] | Kd [8] [nM] | inhibition of mutant IDH1 [9] | cell growth ([10]; NCI-H1299, 72 h, cell counting) | effect of stable knockdown of PGAM1 on growth inhibition ([10]; PGAM1 stable knockdown NCI-H1299 (shPGAM1) vs scramble, 72 h) | inhibition of PHGDH [11] | IC50 [12] [nM] | membrane permeability [13]
O=C1c2ccccc2C(=O)c2c1cc(S(=O)(=O)Nc1ccc(C(F)(F)F)cc1)c(O)c2O [PGMI-004A, reference compound] | only slightly affect the activity | only slightly affect the activity | only slightly affect the activity | exhibited evident anticancer properties | 20 | – | – | – | – | – | – | – | – | –
(-)-Epigallocatechin-3-gallate [EGCG] | lost its inhibitory activity | lost its inhibitory activity | lost its inhibitory activity | – | 80 | non-competitive | inhibits the expression | 780 | did not inhibit | dose-dependently inhibited cell growth | partially rescued | did not inhibit | 490 ± 170 | extremely low membrane permeability
